The text below walks through data of patent US20230414515A1, “ACETIC ACID AS PROCESSING AID IN SPRAY DRYING FOR BASIC DRUGS” (Lonza Bend Inc., priority 2020, published 2023).

The conditions of data set [1]: cited from earlier work; for basic pKa: pH at which half of the basic sites are protonated.
Data set [2] is described as follows: Solubility of dasatinib in methanol (saturated solution, TGA). The data set is classed as physicochemical. To be noted: organic solvent or mixture, thermodynamic from solid, 25° C., analyzed by TGA. Here is the method: Dasatinib free base was recrystallized from methanol and dried. Crystalline dasatinib was added in excess to methanol to form a saturated solution at 25° C. The solution was analyzed by TGA and found to contain 3.1 mg/mL dasatinib.

A short description of data set [3]: Gefitinib solubility in methanol and methanol:water mixtures without acetic acid (HPLC). The following applies: thermodynamic from solid, 24 hour stirring. The data set is classed as physicochemical. As for the experimental part: Crystalline gefitinib was added in excess to methanol and methanol:water mixtures to form saturated solutions at 20° C. After 24 hour of stirring, 1 mL aliquots were centrifuged at 10′000 RCF for 3 min.

A short description of data set [4]: physchem. To be noted: 20 °C, organic solvent or mixture, thermodynamic from solid.
Protocol: The solubility of gefitinib in solvent mixtures with acetic acid were obtained by suspending 300 mg of crystalline gefitinib in 5 mL of solvent (methanol:water) containing 150 microliters of acetic acid at 20° C. (3.9 eq of acetic acid). […] The solubility in 100% methanol with acetic acid was determined after separating undissolved solids by centrifugation of a 1 mL aliquot at 10′000 RCF for 3 min after 1 hour of stirring. The supernatant was then analyzed for gefitinib concentration by HPLC.

The structures appear in SMILES notation. ≈ marks a conversion by molar mass, not a printed value.

For `COc1ccc(-n2nc(C(N)=O)c3c2C(=O)N(c2ccc(N4CCCCC4=O)cc2)CC3)cc1` [Apixaban, apixaban], in data set [1] (pH at which half of the acidic site is deprotonated), the “acidic pKa” value is listed as “ca. 13”. Besides, in data set [1], the “basic pKa” value is recorded as below 2.

Consider `N#Cc1ccnc(N2C(=O)CC[C@H]2C(=O)N(c2cncc(F)c2)[C@H](C(=O)NC2CC(F)(F)C2)c2ccccc2Cl)c1` [Ivosidenib, ivosidenib], for which the “basic pKa” value in data set [1] was “ca. 1.81”.

Turning to `CCC[C@H](NC(=O)[C@@H]1[C@H]2CCC[C@H]2CN1C(=O)[C@@H](NC(=O)[C@@H](NC(=O)c1cnccn1)C1CCCCC1)C(C)(C)C)C(=O)C(=O)NC1CC1` [VX-950, Telaprevir], the “basic pKa” value in data set [1] is reported as −0.69.

Usually solubility stands for how much of the substance goes into solution per volume. Regarding `Cc1nc(Nc2ncc(C(=O)Nc3c(C)cccc3Cl)s2)cc(N2CCN(CCO)CC2)n1` [dasatinib], the “basic pKa” value in data set [1] is given as 7.2. Besides, the solubility in data set [2] was 3.1 mg/mL (≈ 6.35 mM).

With `COc1cc2ncnc(Nc3ccc(F)c(Cl)c3)c2cc1OCCCN1CCOCC1` [gefitinib], the solubility at 24 h is 2.1 mg/mL (≈ 4.7 mM) in data set [3] (methanol:water 60:40, organic solvent or mixture, Methanol:H2O 60:40, 20° C.); 4 mg/mL (≈ 8.95 mM) in data set [3] (methanol:water 70:30, organic solvent or mixture, Methanol:H2O 70:30, 20° C.); 6.3 mg/mL (≈ 14.1 mM) in data set [3] (methanol:water 80:20, organic solvent or mixture, Methanol:H2O 80:20, 20° C.); 6 mg/mL (≈ 13.4 mM) in data set [3] (methanol:water 90:10, organic solvent or mixture, Methanol:H2O 90:10, 20° C.); 5.2 mg/mL (≈ 11.6 mM) in data set [3] (organic solvent or mixture, Methanol:H2O 100:0, 20° C.). For the same compound, the solubility at 1 h in data set [4] (methanol with acetic acid) worked out at 31 mg/mL (≈ 69.4 mM). Also, the solubility in data set [4] (methanol:water 60:40 with acetic acid) was above 60 mg/mL; in data set [4] (methanol:water 70:30 with acetic acid), above 60 mg/mL; in data set [4] (methanol:water 80:20 with acetic acid), above 60 mg/mL; in data set [4] (methanol:water 90:10 with acetic acid), above 60 mg/mL; in data set [4] (methanol:water mixtures with acetic acid), at least 60 mg/mL. Also, the “basic pKa” value in data set [1] is recorded as 6.8.
